According to paper PMC4479967 (Journal of molecular neuroscience : MN, 2015):
“Also recorded” adds a separate entry of the source.

What was measured:
AR42J cells = settings: cited from earlier work
[1] = test system: ERK tyrosine phosphorylation in NCI-H727 cells; test: ERK tyrosine phosphorylation; type: cell-based, human; settings: for Inhibition of CCK-8-induced ERK phosphorylation (T. Moody, unpublished) / Inhibition of CCK-8-induced ERK phosphorylation, in words: NCI-H727 cells; for Inhibition of CCK-8-induced ERK phosphorylation, in words: concentration not given at this place; for Inhibition of CCK-8-induced ERK tyrosine phosphorylation: Fig. 2C
[2] = test system: EGFR tyrosine phosphorylation in NCI-H727 cells; test: EGFR tyrosine phosphorylation; type: cell-based, human; settings: for Inhibition of CCK-8-induced EGFR tyrosine phosphorylation, in words: NCI-H727 cells, concentration not given at this place; for Significance of inhibition of CCK-8-induced EGFR tyrosine phosphorylation: Fig. 2B
[3] = test system: cytosolic Ca2+ in NCI-H727 cells; test: Cytosolic Ca2+ in Fura-2AM loaded NCI-H727 cells; type: cell-based, human; settings: for Effect on basal cytosolic Ca2+: CI-988 1 µM (Fig. 3D), L-364,718 concentration not printed (Fig. 3C)
NCI-H510 cells = settings: 0.1 µM; ref Sethi et al., 1993; cited from earlier work
GLC19 cells = settings: literature discussion, ref Sethi et al., 1993; cited from earlier work
[4] = cited from earlier work
NCI-H727 cells [5] = test: MTT proliferation assay, NCI-H727 cells
NCI-H727 cells [6] = test: Clonogenic assay, clonal growth of NCI-H727 cells; settings: for Effect on CCK-8-stimulated increase in colony number: CI-988 3 µM or gefitinib 1 µM, CCK-8 10 nM
[7] = test system: reactive oxygen species in NCI-H727 cells; test: Reactive oxygen species in NCI-H727 cells; type: cell-based, human; settings: CI-988 (10 µM, Table II), Tiron unpublished (T. Moody)
SCLC = settings: basal or CCK-8-stimulated growth; ref Moody and Jensen, 2001; cited from earlier work
[8] = test system: TGF α secretion from NCI-H727 cells; test: TGF α secretion from NCI-H727 cells; type: cell-based, human; settings: preliminary data, T. Moody unpublished
CCK2R = settings: ref Innes and Snyder, 1980; cited from earlier work
SCLC cells = settings: ref Staley et al., 1990; cited from earlier work
CCK1R = settings: ref Jensen et al., 1989; cited from earlier work
[9] = 10 µM as printed in legend (Fig. 4C)
[10] = 5 mM NAC or Tiron (Fig. 4A, B), p < 0.05 relative to CCK-8

In the case of COc1cc2ncnc(Nc3cccc(Cl)c3)c2cc1OC [AG1478], the “Effect on CCK-8-induced EGFR and ERK tyrosine phosphorylation in AR42J cells” value (AR42J cells; ref Piiper et al., 2003) is listed as “inhibited”.
For COc1cccc(-c2cc(=O)c3ccccc3o2)c1N [PD98059], the “Inhibition of CCK-8-induced ERK phosphorylation (T. Moody, unpublished)” value [1] was “blocked”.
With CC(C)(C)n1nc(-c2ccc(Cl)cc2)c2c(N)ncnc21 [PP2] the “Inhibition of CCK-8-induced EGFR tyrosine phosphorylation” value ([2]; 10 µM PP2 (Fig. 4C, D), p < 0.01 relative to CCK-8) was “significantly inhibited; also recorded: inhibited the increase in EGFR transactivation”, the “Effect on basal EGFR tyrosine phosphorylation” value [2, 9] was “no effect” and the “Inhibition of CCK-8-induced EGFR tyrosine phosphorylation, in words” value [2] was “blocked; also recorded: significantly inhibited”. The “Inhibition of CCK-8-induced ERK phosphorylation, in words” value [1] was “significantly inhibited” and the “Effect on CCK-8-stimulated increase in P-Src and P-ERK in AR42J cells” value (AR42J cells; ref Ferrand et al., 2006) was “inhibited”.
For gastrin, the “Effect on cytosolic Ca2+, in words” value ([3]; 10 nM, Fura-2AM, 37°C, representative of 3 others (Fig. 3A, B)) is given as “increased the cytosolic Ca^2+”, the “Effect on cytosolic Ca2+ in NCI-H510 cells” value (NCI-H510 cells) is given as “increased cytosolic Ca^2+” and the “Effect on cytosolic Ca2+ in GLC19 cells” value (GLC19 cells) is given as “no effect”. For the same molecule, the “Effect on heparin binding (HB) EGF” value ([4]; PKC-dependent, ref Sinclair et al., 2004) was “increases”, the “Effect on COX-2 and prostaglandin E2 expression” value ([4]; colon cancer cells, ref Colucci et al., 2005) was “increases COX-2 and prostaglandin E2 expression” and the “Effect on MMP9 expression” value ([4]; gastric epithelial cells, ref Wroblewski et al., 2002) was “increases”. For the same molecule, the “Effect on ELK-1 and COX-2 expression” value ([4]; intestinal epithelial cells, ref Guo et al., 2002) was “increased ELK-1 and COX-2 expression”, the “Effect on c-fos expression” value ([4]; ref Stepan et al., 1999) was “increases c-fos expression” and the “Effect on expression of HB-EGF and amphiregulin” value ([4]; ref Tsutsui et al., 1997) was “increases”.
For COc1cc2ncnc(Nc3ccc(F)c(Cl)c3)c2cc1OCCCN1CCOCC1 [Gefitinib], the “Increase in cytotoxicity of gefitinib in presence of CI-988” value (NCI-H727 cells [5]; gefitinib with CI-988) was “approximately an order of magnitude”, the “Effect on CCK-8-stimulated increase in colony number” value (NCI-H727 cells [6]) was “reversed” and the “Effect on basal growth or growth stimulated by CCK-8, in words” value (NCI-H727 cells [6]; NCI-H727 cells) was “inhibited the basal growth of NCI-H727 cells or that stimulated by CCK-8”. For the same molecule, the “Reduction of colony number” value (NCI-H727 cells [6]; gefitinib (1 µM), no CCK-8) was 37%.
For “EGF: epidermal growth factor, EGFR ligand (NSDSECPLSHDGYCLHDGVCMYIEALDKYACNCVVGYIGERCQYRDLKWWELR; UniProt P01133 971-1023, looked up)”, the “EGFR tyrosine phosphorylation, in words” value ([2]; 0.1 µM (100 nM) ligand, 2 min, NCI-H727) was “strongly”.
For C[C@](Cc1c[nH]c2ccccc12)(NC(=O)OC1[C@H]2C[C@@H]3C[C@@H](C[C@H]1C3)C2)C(=O)NC[C@H](NC(=O)CCC(=O)O)c1ccccc1 (stereo partly drawn) [CI-988], the “Inhibition of CCK-8-induced EGFR tyrosine phosphorylation” value ([2]; CI-988 1 µM vs 0.1 µM CCK-8 (Fig. 2A)) was “weakly”, the “Significance of inhibition of CCK-8-induced EGFR tyrosine phosphorylation” value ([2]; CI-988 1 µM) was “not 1 µM” and the “Inhibition of CCK-8-induced EGFR tyrosine phosphorylation” value ([2]; CI-988 10 µM vs 0.1 µM CCK-8 (Fig. 2A)) was “strongly”. For the same molecule, the “Significance of inhibition of CCK-8-induced EGFR tyrosine phosphorylation” value ([2]; CI-988 10 µM, p < 0.01 relative to CCK-8) was “significantly inhibited”, the “Inhibition of CCK-8-induced EGFR tyrosine phosphorylation, in words” value [2] was “blocked; also recorded: significantly inhibited” and the “Effect on total EGFR” value ([2]; Western blot, Fig. 2A) was “no effect”. The “Antagonism of gastrin-17-induced EGFR tyrosine phosphorylation” value ([2]; data not shown) was “antagonized”, the “Inhibition of CCK-8-induced ERK tyrosine phosphorylation” value ([1]; CI-988 1 µM) was “not 1 µM” and the “Inhibition of CCK-8-induced ERK tyrosine phosphorylation” value ([1]; CI-988 10 µM, p < 0.05 relative to CCK-8) was “significantly inhibited”. The “Inhibition of CCK-8-induced ERK phosphorylation, in words” value [1] was “significantly inhibited”, the “Inhibition of CCK-8-induced ERK phosphorylation (T. Moody, unpublished)” value [1] was “blocked” and the “Effect on total ERK” value ([1]; Western blot, Fig. 2A) was “no effect”. For the same molecule, the “Antagonism of gastrin-17-induced ERK tyrosine phosphorylation” value ([1]; data not shown) was “antagonized”, the “Effect on basal cytosolic Ca2+” value [3] was “no effect” and the “Inhibition of CCK-8-induced ROS increase, in words” value [7] was “blocked significantly; also recorded: inhibited”. For the same molecule, the “Effect on SCLC growth” value (SCLC) was “inhibit”, the “Potentiation of growth inhibitory effects of gefitinib” value (NCI-H727 cells [5]; NCI-H727 cells) was “potentiated the growth inhibitory effects of gefitinib” and the “Colony number + 10 nM CCK-8” value (NCI-H727 cells [6]; CI-988 3 uM + 10 nM CCK-8 (CCK-8 alone 74 ± 9), mean ± S.D. of 3 determinations) was 44 ± 5. The “Effect on CCK-8-stimulated increase in colony number” value (NCI-H727 cells [6]) was “reversed”, the Colony number (NCI-H727 cells [6]; CI-988 3 uM, no CCK-8, control 42± 6, mean ± S.D. of 3 determinations, 2 weeks) was 21 ± 3 and the “Reduction of colony number” value (NCI-H727 cells [6]; CI-988 (3 µM), no CCK-8) was 50%. The “Effect on NCI-H727 proliferation, in words” value (NCI-H727 cells [6]; NCI-H727 cells) was “inhibit proliferation” and the “Effect on basal growth or growth stimulated by CCK-8, in words” value (NCI-H727 cells [6]; NCI-H727 cells) was “inhibited the basal growth of NCI-H727 cells or that stimulated by CCK-8”.
For O=S(=O)(O)c1cc(O)c(O)c(S(=O)(=O)O)c1 [Tiron], the “Effect on basal EGFR tyrosine phosphorylation” value ([2]; 5 mM (Fig. 4A)) was “no effect”, the “Inhibition of CCK-8-induced EGFR transactivation” value [2, 10] was “inhibited significantly; also recorded: inhibited the increase in EGFR transactivation” and the “Inhibition of CCK-8-induced EGFR tyrosine phosphorylation, in words” value [2] was “inhibited”. The “Inhibition of CCK-8-induced EGFR tyrosine phosphorylation, in words” value ([2]; listed as tiron) was “blocked” and the “Inhibition of CCK-8-induced ROS increase, in words” value [7] was “inhibited”.
In the case of CC(=O)N[C@@H](CS)C(=O)O [NAC, N-acetylcysteine], the “Effect on basal EGFR tyrosine phosphorylation” value ([2]; 5 mM (Fig. 4A)) is reported as “no effect” and the “Inhibition of CCK-8-induced EGFR transactivation” value [2, 10] is reported as “inhibited significantly; also recorded: inhibited the increase in EGFR transactivation”.
With CNC(=O)[C@H](Cc1c[nH]c2ccccc12)NC(=O)[C@@H](CC(=O)NO)CC(C)C [GM6001] the “Effect on basal EGFR tyrosine phosphorylation” value [2, 9] was “no effect”, the “Inhibition of CCK-8-induced EGFR tyrosine phosphorylation” value ([2]; GM6001 1 µM as printed in text (Fig. 4C, D), p < 0.01 relative to CCK-8) was “significantly inhibited” and the “Inhibition of CCK-8-induced EGFR transactivation” value ([2]; GM6001 10 µM as printed in legend of Fig. 4C) was “inhibited the increase in EGFR transactivation”. For the same molecule, the “Inhibition of CCK-8-induced EGFR tyrosine phosphorylation, in words” value [2] was “blocked; also recorded: significantly inhibited”, the “Inhibition of CCK-8-induced ERK phosphorylation, in words” value [1] was “significantly inhibited” and the “Effect on CCK-8-stimulated secretion of TGF α” value [8] was “inhibits”.
In the case of Cc1cccc(NC(=O)N[C@@H]2N=C(c3ccccc3)c3ccccc3N(C)C2=O)c1 [L-365,260], the “CCK2R antagonism, in words” value (CCK2R) is given as “antagonized”, the “Effect on SCLC growth” value (SCLC) is given as “inhibit” and the “Antagonism of effects of CCK-8 on SCLC cells” value (SCLC cells) is given as “blocked”.
In the case of CN1C(=O)[C@@H](NC(=O)c2cc3ccccc3[nH]2)N=C(c2ccccc2)c2ccccc21 [L-364,718], the “Effect on basal cytosolic Ca2+” value [3] is listed as “no effect”, the “CCK1R antagonism, in words” value (CCK1R) is listed as “antagonized” and the “Antagonism of effects of CCK-8 on SCLC cells” value (SCLC cells) is listed as “not L-364,718”.
